One may read the inhibition as the change of the read-out against control, counted positive when it falls. One may read the IC50 as the point on the concentration scale where inhibition reaches its midpoint.

Here are results for seven compounds from US8575178B2, “Isothiazolo-pyrimidinedione derivatives as TRPA1 modulators” (Glenmark Pharmaceuticals S.A., priority 2009, dated 2013).

The target in assay [1] is T1, human TRPA1 (Homo sapiens, UniProt O75762).
T1 construct: expressed in transfected cells; host or cells: CHO cells (G-418 selection)
Put plainly: 45Calcium uptake assay, inhibition of AITC induced calcium uptake in human TRPA1 expressing CHO cells. It counts as cell-based. Conditions: AITC 30 μM; for inhibition at 1 µM: 1.0 μM compound, read-out: human TRPA1 Percentage inhibition at 1.0 μM; for inhibition at 10 µM: 10.0 μM compound, read-out: human TRPA1 Percentage inhibition at 10.0 μM. From the text:
(§1) The illustrative examples of the present invention are screened for TRPA1 activity according to a modified procedure described in (a) Tóth, A. et al. Life Sciences, 2003, 73, 487-498. (b) McNamara C, R. et al, Proc. Natl. Acad. Sci. U.S.A., 2007, 104, 13525-13530. The screening of the compounds can be carried out by other methods and procedures known to persons skilled in the art.
(§2) Screening for TRPA1 Antagonist Using the ^45Calcium Uptake Assay:
(§3) The inhibition of TRPA1 receptor activation was measured as inhibition of allyl isothiocyanate (AITC) induced cellular uptake of radioactive calcium.
(§4) Test compounds were dissolved in 100% DMSO to prepare 10 mM stock and then diluted using plain medium with 0.1% BSA and 1.8 mM CaCl2 to get the desired concentration. The final concentration of DMSO in the reaction was 0.5% (v/v). Human TRPA1 expressing CHO cells were grown in F-12 DMEM medium with 10% FBS, 1% penicillin-streptomycin solution, and 400 μg/ml of G-418. Rat TRPA1 expressing CHO cells were grown in F-12 DMEM medium with 10% FBS, 1% penicillin-streptomycin solution, and 400 μg/ml of Zeocin. Cells were seeded 24 h prior to the assay in 96 well plates so as to get ˜50,000 cells per well on the day of experiment. Cells were treated with the test compounds for 10 minutes followed by the addition of AITC at a final concentration of 30 μM (for human TRPA1) and/or 10 μM (for rat TRPA1) and 5 μCi/ml ^45Ca^+2 for 3 minutes. Cells were washed and lysed using a buffer containing 1% Triton X-100, 0.1% deoxycholate and 0.1% SDS. Radioactivity in the lysate was measured in a Packard TopCount after addition of liquid scintillant. (Toth et al, Life Sciences (2003) 73, 487-498; McNamara C R et al, Proceedings of the National Academy of Sciences, (2007) 104, 13525-13530).
(§5) Concentration response curves were plotted as a % of maximal response obtained in the absence of test antagonist. IC50 values can be calculated from concentration response curve by nonlinear regression analysis using GraphPad PRISM software.

Assay [2] addresses T2, rat TRPA1 (Rattus norvegicus, UniProt Q6RI86).
T2 construct: expressed in transfected cells; host or cells: CHO cells (Zeocin selection)
As to the kind of experiment: 45Calcium uptake assay, inhibition of AITC induced calcium uptake in rat TRPA1 expressing CHO cells. It counts as cell-based. As to conditions: AITC 10 μM; for inhibition at 1 µM: 1.0 μM compound, read-out: rat TRPA1 Percentage inhibition at 1.0 μM; for inhibition at 10 µM: 10.0 μM compound, read-out: rat TRPA1 Percentage inhibition at 10.0 μM.
Description: as §1, §2, §3, §4, §5

T1 sequence (O75762 whole entry): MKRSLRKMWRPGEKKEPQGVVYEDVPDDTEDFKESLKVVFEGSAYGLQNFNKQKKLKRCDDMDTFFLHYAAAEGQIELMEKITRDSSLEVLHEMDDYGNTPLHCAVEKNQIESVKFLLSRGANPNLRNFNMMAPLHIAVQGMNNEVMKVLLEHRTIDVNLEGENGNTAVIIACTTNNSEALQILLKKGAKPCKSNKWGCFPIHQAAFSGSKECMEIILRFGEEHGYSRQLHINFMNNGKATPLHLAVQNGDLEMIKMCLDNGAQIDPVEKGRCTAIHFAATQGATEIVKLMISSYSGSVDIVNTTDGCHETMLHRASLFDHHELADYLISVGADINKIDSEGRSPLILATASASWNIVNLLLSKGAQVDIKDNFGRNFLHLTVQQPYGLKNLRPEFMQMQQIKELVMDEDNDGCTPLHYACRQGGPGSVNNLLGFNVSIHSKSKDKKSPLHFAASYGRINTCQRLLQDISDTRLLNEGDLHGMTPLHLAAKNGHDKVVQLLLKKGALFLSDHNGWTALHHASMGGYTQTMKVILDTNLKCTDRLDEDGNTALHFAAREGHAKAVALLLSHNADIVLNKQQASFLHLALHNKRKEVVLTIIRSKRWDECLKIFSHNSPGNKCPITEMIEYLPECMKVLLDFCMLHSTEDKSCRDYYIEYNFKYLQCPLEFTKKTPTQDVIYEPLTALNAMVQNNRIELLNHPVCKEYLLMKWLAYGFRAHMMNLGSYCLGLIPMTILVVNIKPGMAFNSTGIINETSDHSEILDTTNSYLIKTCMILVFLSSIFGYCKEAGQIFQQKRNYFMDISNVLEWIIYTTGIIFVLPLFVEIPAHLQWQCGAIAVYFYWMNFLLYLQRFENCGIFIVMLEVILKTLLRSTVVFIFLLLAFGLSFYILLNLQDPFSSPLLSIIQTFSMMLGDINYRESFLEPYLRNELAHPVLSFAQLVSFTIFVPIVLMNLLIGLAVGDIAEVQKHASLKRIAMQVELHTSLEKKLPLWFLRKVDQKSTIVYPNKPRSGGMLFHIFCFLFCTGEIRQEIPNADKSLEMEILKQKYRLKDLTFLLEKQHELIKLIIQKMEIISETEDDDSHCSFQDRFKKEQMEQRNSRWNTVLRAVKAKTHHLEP
T2 sequence (Q6RI86 whole entry): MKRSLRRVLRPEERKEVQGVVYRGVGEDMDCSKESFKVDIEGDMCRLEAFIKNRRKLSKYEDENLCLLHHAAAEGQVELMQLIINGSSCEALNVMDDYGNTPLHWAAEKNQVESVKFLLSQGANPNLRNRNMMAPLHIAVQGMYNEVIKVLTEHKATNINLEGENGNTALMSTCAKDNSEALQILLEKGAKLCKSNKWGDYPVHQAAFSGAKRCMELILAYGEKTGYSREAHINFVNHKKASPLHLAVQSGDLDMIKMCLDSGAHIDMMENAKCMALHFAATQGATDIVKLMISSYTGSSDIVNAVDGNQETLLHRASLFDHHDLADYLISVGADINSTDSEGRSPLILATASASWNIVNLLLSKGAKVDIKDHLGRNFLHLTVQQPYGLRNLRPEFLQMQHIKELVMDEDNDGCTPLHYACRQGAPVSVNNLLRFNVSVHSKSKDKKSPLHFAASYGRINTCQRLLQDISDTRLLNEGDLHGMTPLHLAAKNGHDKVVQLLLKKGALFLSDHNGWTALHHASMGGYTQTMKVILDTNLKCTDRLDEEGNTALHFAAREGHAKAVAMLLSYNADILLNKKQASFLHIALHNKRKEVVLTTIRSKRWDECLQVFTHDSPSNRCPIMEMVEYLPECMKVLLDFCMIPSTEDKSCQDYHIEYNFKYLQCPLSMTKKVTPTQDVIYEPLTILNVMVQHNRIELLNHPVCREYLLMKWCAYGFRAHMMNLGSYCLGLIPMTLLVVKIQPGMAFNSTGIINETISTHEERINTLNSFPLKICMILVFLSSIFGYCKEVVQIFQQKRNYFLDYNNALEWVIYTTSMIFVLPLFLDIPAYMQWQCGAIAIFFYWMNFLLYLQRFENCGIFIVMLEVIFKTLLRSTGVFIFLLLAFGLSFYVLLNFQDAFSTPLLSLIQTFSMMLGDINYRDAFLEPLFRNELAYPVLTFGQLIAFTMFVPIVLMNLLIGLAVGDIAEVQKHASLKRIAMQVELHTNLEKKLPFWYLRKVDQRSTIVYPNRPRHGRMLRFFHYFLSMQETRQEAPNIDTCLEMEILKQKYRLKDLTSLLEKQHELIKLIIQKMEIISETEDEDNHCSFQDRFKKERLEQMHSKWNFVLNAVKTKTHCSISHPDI

As for `Cn1c(=O)c2c(CC(=O)Nc3nc(-c4ccc(OC(F)(F)F)c(Cl)c4)cs3)nsc2n(C)c1=O` [Example 30, 2-(5,7-Dimethyl-4,6-dioxo-4,5,6,7-tetrahydro[1,2]thiazolo[5,4-d]pyrimidin-3-yl)-N-{4-[3-chloro-4-(trifluoromethoxy)phenyl]-1,3-thiazol-2-yl}acetamide], in assay [1], the inhibition at 1 µM was determined as 95.6%, the inhibition at 10 µM turned out to be 99.7% and the IC50 was under 50 nM. Besides, in assay [2], the inhibition at 1 µM was 100%, the inhibition at 10 µM came out at 99.3% and the IC50 fell in the range of 50 to 100 nM.

Turning to `Cn1c(=O)c2c(CC(=O)Nc3nc(-c4cc(Cl)cc(C(F)(F)F)c4)cs3)nsc2n(C)c1=O` [Example 32, 2-(5,7-Dimethyl-4,6-dioxo-4,5,6,7-tetrahydro[1,2]thiazolo[5,4-d]pyrimidin-3-yl)-N-{4-[3-chloro-5-(trifluoromethyl)phenyl]-1,3-thiazol-2-yl}acetamide], in assay [1], the inhibition at 1 µM worked out at 99.2% and the inhibition at 10 µM came to 99.4%. In addition, in assay [2], the inhibition at 1 µM amounted to 99.8% and the inhibition at 10 µM turned out to be 100%.

On to `Cn1c(=O)c2c(CC(=O)Nc3nc(-c4cc(F)c(C(F)(F)F)c(F)c4)cs3)snc2n(C)c1=O` [Example 10, N-{4-[3,5-Difluoro-4-(trifluoromethyl)phenyl]-1,3-thiazol-2-yl}-2-(5,7-dimethyl-4,6-dioxo-4,5,6,7-tetrahydro[1,2]thiazolo[3,4-d]pyrimidin-3-yl)acetamide], for which, in assay [1], the inhibition at 1 µM is 99.9% and the inhibition at 10 µM was found to be 100%. In assay [2], the inhibition at 1 µM is 35.2% and the inhibition at 10 µM was found to be 68.4%.

As for `Cn1c(=O)c2c(CC(=O)Nc3nc(-c4cccc(C(F)(F)F)c4)cs3)nsc2n(C)c1=O` [Example 13, 2-(5,7-Dimethyl-4,6-dioxo-4,5,6,7-tetrahydro[1,2]thiazolo[5,4-d]pyrimidin-3-yl)-N-{4-[3-(trifluoromethyl)phenyl]-1,3-thiazol-2-yl}acetamide], in assay [1], the inhibition at 1 µM stood at 99.7%, the inhibition at 10 µM was found to be 99.8% and the IC50 was under 50 nM. Further, in assay [2], the inhibition at 1 µM worked out at 99.3% and the inhibition at 10 µM is 99.3%.

With `Cn1c(=O)c2c(CC(=O)Nc3nc(-c4ccc(OC(F)(F)F)c(F)c4)cs3)nsc2n(C)c1=O` [Example 25, 2-(5,7-Dimethyl-4,6-dioxo-4,5,6,7-tetrahydro[1,2]thiazolo[5,4-d]pyrimidin-3-yl)-N-{4-[3-fluoro-4-(trifluoromethoxy)phenyl]-1,3-thiazol-2-yl}acetamide], in assay [1], the inhibition at 1 µM stood at 99.9%, the inhibition at 10 µM is 100% and the IC50 is under 50 nM. Also, in assay [2], the inhibition at 1 µM came out at 98.8%, the inhibition at 10 µM turned out to be 100% and the IC50 lay within 50 to 100 nM.

With `Cn1c(=O)c2c(CC(=O)Nc3nc(-c4ccc(Cl)cc4)cs3)snc2n(C)c1=O` [Example 2, N-[4-(4-Chlorophenyl)-1,3-thiazol-2-yl]-2-(5,7-dimethyl-4,6-dioxo-4,5,6,7-tetrahydro[1,2]thiazolo[3,4-d]pyrimidin-3-yl)acetamide], in assay [1], the inhibition at 1 µM is 99.7%, the inhibition at 10 µM worked out at 100% and the IC50 was under 50 nM. Moreover, in assay [2], the inhibition at 1 µM came to 34.9% and the inhibition at 10 µM is 43.8%.

On to `Cn1c(=O)c2c(CC(=O)Nc3nc(-c4ccc(Cl)c(OC(F)(F)F)c4)cs3)nsc2n(C)c1=O` [Example 31, 2-(5,7-Dimethyl-4,6-dioxo-4,5,6,7-tetrahydro[1,2]thiazolo[5,4-d]pyrimidin-3-yl)-N-{4-[4-chloro-3-(trifluoromethoxy)phenyl]-1,3-thiazol-2-yl}acetamide], for which, in assay [1], the inhibition at 1 µM is 99.2% and the inhibition at 10 µM amounted to 99.2%. Also, in assay [2], the inhibition at 1 µM was found to be 99.6% and the inhibition at 10 µM stood at 96.2%.
